Measurements from ChEMBL document CHEMBL3352328, “Synthesis and biological evaluation of a new series of N-acyldiamines as potential antibacterial and antifungal agents” (2014).
Converted amounts (≈) assume the structure as drawn. Blank lines part the entries; values can stand above or below the molecule they belong to. The source made the active and inactive calls. The rule behind the calls is not given here.

Key:
[1] = system: Candida parapsilosis; assay: Antifungal activity against Candida parapsilosis ATCC 22019 by broth microdilution method; type: functional; settings: Lodderomyces parapsilosis
[2] = system: Pseudomonas aeruginosa; assay: Antimicrobial activity against Pseudomonas aeruginosa ATCC 27853 by broth dilution method; type: functional
[3] = system: Staphylococcus aureus; assay: Antimicrobial activity against Staphylococcus aureus ATCC 29213 by broth dilution method; type: functional
[4] = system: Candida tropicalis; assay: Antifungal activity against Candida tropicalis ATCC 750 by broth microdilution method; type: functional
[5] = system: Escherichia coli; assay: Antimicrobial activity against Escherichia coli ATCC 11229 by broth dilution method; type: functional
[6] = system: Staphylococcus epidermidis; assay: Bacteriostatic activity against Staphylococcus epidermidis ATCC 12228 after 24 hrs; type: functional, organism-based
[7] = system: Nakaseomyces glabratus; assay: Antifungal activity against Candida glabrata ATCC 90030 by broth microdilution method; type: functional
[8] = system: Staphylococcus epidermidis; assay: Antimicrobial activity against Staphylococcus epidermidis ATCC 12228 by broth dilution method; type: functional
[9] = system: Candida albicans; assay: Antifungal activity against Candida albicans ATCC 18804 by broth microdilution method; type: functional
[10] = system: Escherichia coli; assay: Bactericidal activity against Escherichia coli ATCC 11229 after 24 hrs; type: functional; settings: ATCC 11229, 24 h
[11] = system: Staphylococcus epidermidis; assay: Bactericidal activity against Staphylococcus epidermidis ATCC 12228 after 24 hrs; type: functional; settings: ATCC 12228, 24 h
[12] = system: Staphylococcus aureus; assay: Bacteriostatic activity against Staphylococcus aureus ATCC 29213 after 24 hrs; type: functional, organism-based
[13] = system: Staphylococcus aureus; assay: Bactericidal activity against methicillin-resistant Staphylococcus aureus clinical isolate 8 after 24 hrs; type: functional; settings: isolate 8, 24 h
[14] = system: Staphylococcus aureus; assay: Bactericidal activity against methicillin-resistant Staphylococcus aureus clinical isolate 18 after 24 hrs; type: functional; settings: isolate 18, 24 h
[15] = system: Staphylococcus aureus; assay: Bactericidal activity against methicillin-resistant Staphylococcus aureus clinical isolate 6 after 24 hrs; type: functional; settings: isolate 6, 24 h
[16] = system: Pseudomonas aeruginosa; assay: Bacteriostatic activity against Pseudomonas aeruginosa ATCC 27853 after 24 hrs; type: functional, organism-based
[17] = system: Staphylococcus aureus; assay: Bactericidal activity against methicillin-resistant Staphylococcus aureus clinical isolate 12 after 24 hrs; type: functional; settings: isolate 12, 24 h
[18] = system: Staphylococcus aureus; assay: Bactericidal activity against methicillin-resistant Staphylococcus aureus clinical isolate 15 after 24 hrs; type: functional; settings: isolate 15, 24 h
[19] = system: Staphylococcus aureus; assay: Bactericidal activity against methicillin-resistant Staphylococcus aureus clinical isolate 4 after 24 hrs; type: functional; settings: isolate 4, 24 h
[20] = system: Staphylococcus aureus; assay: Bactericidal activity against methicillin-resistant Staphylococcus aureus clinical isolate 9 after 24 hrs; type: functional; settings: isolate 9, 24 h
[21] = system: Staphylococcus aureus; assay: Bactericidal activity against methicillin-resistant Staphylococcus aureus clinical isolate 21 after 24 hrs; type: functional; settings: isolate 21, 24 h
[22] = system: Staphylococcus aureus; assay: Bactericidal activity against methicillin-resistant Staphylococcus aureus clinical isolate 2 after 24 hrs; type: functional; settings: isolate 2, 24 h
[23] = system: Staphylococcus aureus; assay: Bactericidal activity against methicillin-resistant Staphylococcus aureus clinical isolate 20 after 24 hrs; type: functional; settings: isolate 20, 24 h
[24] = system: Staphylococcus aureus; assay: Bactericidal activity against methicillin-resistant Staphylococcus aureus clinical isolate 17 after 24 hrs; type: functional; settings: isolate 17, 24 h
[25] = system: Staphylococcus aureus; assay: Bactericidal activity against methicillin-resistant Staphylococcus aureus clinical isolate 16 after 24 hrs; type: functional; settings: isolate 16, 24 h
[26] = system: Staphylococcus aureus; assay: Bactericidal activity against methicillin-resistant Staphylococcus aureus clinical isolate 13 after 24 hrs; type: functional; settings: isolate 13, 24 h
[27] = system: Staphylococcus aureus; assay: Bactericidal activity against methicillin-resistant Staphylococcus aureus clinical isolate 7 after 24 hrs; type: functional; settings: isolate 7, 24 h
[28] = system: Staphylococcus aureus; assay: Bactericidal activity against methicillin-resistant Staphylococcus aureus clinical isolate 10 after 24 hrs; type: functional; settings: isolate 10, 24 h
[29] = system: Staphylococcus aureus; assay: Bactericidal activity against methicillin-resistant Staphylococcus aureus clinical isolate 11 after 24 hrs; type: functional; settings: isolate 11, 24 h
[30] = system: Staphylococcus aureus; assay: Bactericidal activity against methicillin-resistant Staphylococcus aureus clinical isolate 5 after 24 hrs; type: functional; settings: isolate 5, 24 h
[31] = system: Escherichia coli; assay: Bacteriostatic activity against Escherichia coli ATCC 11229 after 24 hrs; type: functional, organism-based
[32] = system: Staphylococcus aureus; assay: Bactericidal activity against methicillin-resistant Staphylococcus aureus clinical isolate 14 after 24 hrs; type: functional; settings: isolate 14, 24 h
[33] = system: Staphylococcus aureus; assay: Bactericidal activity against methicillin-resistant Staphylococcus aureus clinical isolate 1 after 24 hrs; type: functional; settings: isolate 1, 24 h
[34] = system: Staphylococcus aureus; assay: Bactericidal activity against methicillin-resistant Staphylococcus aureus clinical isolate 3 after 24 hrs; type: functional; settings: isolate 3, 24 h
[35] = system: Staphylococcus aureus; assay: Bactericidal activity against methicillin-resistant Staphylococcus aureus clinical isolate after 24 hrs; type: functional
[36] = system: Staphylococcus aureus; assay: Bactericidal activity against methicillin-resistant Staphylococcus aureus clinical isolate 19 after 24 hrs; type: functional; settings: isolate 19, 24 h

MIC [1]: 128 µg/mL (≈ 394 µM) | MIC [2]: > 1020 µg/mL | MIC [3]: > 1020 µg/mL | MIC [4]: 128 µg/mL (≈ 394 µM) | MIC [5]: > 1020 µg/mL | MIC [7]: 64 µg/mL (≈ 197 µM) | MIC [8]: 8 µg/mL (≈ 24.6 µM) | MIC [9]: 128 µg/mL (≈ 394 µM)
Structure (SMILES): CCCCCCCC/C=C\CCCCCCCC(=O)NCCN
Activity [6]: Active

MIC [1]: 128 µg/mL (≈ 392 µM) | MIC [2]: > 1020 µg/mL | MIC [3]: 512 µg/mL (≈ 1570 µM) | MIC [4]: 64 µg/mL (≈ 196 µM) | MIC [5]: 1020 µg/mL (≈ 3140 µM) | MIC [7]: 32 µg/mL (≈ 98 µM) | MIC [8]: 16 µg/mL (≈ 49 µM) | MIC [9]: 8 µg/mL (≈ 24.5 µM)
Structure (SMILES): CCCCCCCCCCCCCCCC(=O)NCCCCN
MBC [10]: 1020 µg/mL (≈ 3140 µM) | MBC [11]: 128 µg/mL (≈ 392 µM) | Activity [12]: Active

Structure (SMILES): O=C(N[C@H](CO)[C@H](O)c1ccc([N+](=O)[O-])cc1)C(Cl)Cl [CHLORAMPHENICOL]
MIC [2]: 32 µg/mL (≈ 99 µM) | MBC [13]: 64 µg/mL (≈ 198 µM) | MBC [14]: 8 µg/mL (≈ 24.8 µM) | MBC [15]: 8 µg/mL (≈ 24.8 µM) | Activity [16]: Active | MBC [17]: 64 µg/mL (≈ 198 µM) | MBC [11]: 128 µg/mL (≈ 396 µM) | MBC [18]: 32 µg/mL (≈ 99 µM) | MBC [19]: 8 µg/mL (≈ 24.8 µM) | MBC [20]: 8 µg/mL (≈ 24.8 µM) | MBC [21]: 8 µg/mL (≈ 24.8 µM) | MBC [22]: 4 µg/mL (≈ 12.4 µM) | MBC [23]: 4 µg/mL (≈ 12.4 µM) | MBC [24]: 4 µg/mL (≈ 12.4 µM) | MBC [25]: 32 µg/mL (≈ 99 µM) | MBC [26]: 64 µg/mL (≈ 198 µM) | MBC [27]: 64 µg/mL (≈ 198 µM) | MBC [28]: 64 µg/mL (≈ 198 µM) | MBC [29]: 64 µg/mL (≈ 198 µM) | MBC [30]: 4 µg/mL (≈ 12.4 µM) | Activity [31]: Active | MBC [32]: 64 µg/mL (≈ 198 µM) | MBC [33]: 64 µg/mL (≈ 198 µM) | Activity [12]: Active | MBC [34]: 4 µg/mL (≈ 12.4 µM) | MIC [8]: 32 µg/mL (≈ 99 µM) | MIC90 [35]: 32 µg/mL (≈ 99 µM) | MBC [36]: 128 µg/mL (≈ 396 µM)

MIC [1]: 16 µg/mL (≈ 56.2 µM) | MIC [2]: 1020 µg/mL (≈ 3600 µM) | MIC [3]: > 1020 µg/mL | MIC [4]: 32 µg/mL (≈ 112 µM) | MIC [5]: > 1020 µg/mL | MIC [7]: 64 µg/mL (≈ 225 µM) | MIC [8]: 1020 µg/mL (≈ 3600 µM) | MIC [9]: 32 µg/mL (≈ 112 µM)
Structure (SMILES): CCCCCCCCCCCCCC(=O)NCCCN
Activity [16]: Active | Activity [6]: Active
